# Molecular target: IKZF3 130-189aa Q147A N149E Q150V S154K (AEVK) ZF-GFP (Homo sapiens, UniProt Q96SW2+Q9UKT9, N149E/Q147A/Q150V/S154K)
# Experiment: GFP degradation flow cytometry assay, AEVK mutant ZF-eGFP
# Format: cell-based
# Procedure: The following method was used to generate lentiviral vectors for plasmids tested in library hit confirmation experiments: WT, QPIS, ANQS, APIS, HEIP, FEVP, WEIK, FDIP, AEVK, WNQS, WEIS, WNIQ, and WDIA. HEK293T cells were seeded into 6 well TC-treated cell culture dishes (Falcon) at 7×10^5 cells per well and incubated overnight at 37° C. and 5% CO2. […] In a separate tube 2 μL of PEIPro (Polyplus) was added to 100 μL of OptiMEM. The solution containing PEIPro and DNA was mixed and incubated at room temperature for 15 minutes to create the transfection mixture. The transfection mixture was added to cells and incubated for 5-6 hours at 37° C. and 5% CO2. After 2 days, the supernatant was harvested and fresh media was added to cells. 24 hours later, the supernatant was harvested and combined with the first supernatant harvested. Supernatant was centrifuged at 2000×g room temperature for 5 minutes, then the supernatant was filtered through a 0.45 μm cellulose acetate syringe filter and frozen at −80° C. […]
# Jurkat cells were added to 96 well U-bottom assay plates (Falcon) at 1×10^5 cells per well and treated with compounds for 18 hours at 37° C. and 5% CO2. […] Data was analysed using FlowJo 10.8.1 (BD).
# Having assessed the broad trends from this library screen, the sequences with the highest log FC values for A63 and B08 were selected and transduced into separate Jurkat cell lines. […]
# Sequence of IKZF3 130-189aa Q147A N149E Q150V S154K (AEVK) ZF-GFP (Q9UKT9 130-189 Q147A/N149E/Q150V/S154K): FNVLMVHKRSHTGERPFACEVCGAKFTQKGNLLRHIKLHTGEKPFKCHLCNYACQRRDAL
# Sequence of IKZF3 130-189aa Q147A N149E Q150V S154K (AEVK) ZF-GFP (Q96SW2 whole entry): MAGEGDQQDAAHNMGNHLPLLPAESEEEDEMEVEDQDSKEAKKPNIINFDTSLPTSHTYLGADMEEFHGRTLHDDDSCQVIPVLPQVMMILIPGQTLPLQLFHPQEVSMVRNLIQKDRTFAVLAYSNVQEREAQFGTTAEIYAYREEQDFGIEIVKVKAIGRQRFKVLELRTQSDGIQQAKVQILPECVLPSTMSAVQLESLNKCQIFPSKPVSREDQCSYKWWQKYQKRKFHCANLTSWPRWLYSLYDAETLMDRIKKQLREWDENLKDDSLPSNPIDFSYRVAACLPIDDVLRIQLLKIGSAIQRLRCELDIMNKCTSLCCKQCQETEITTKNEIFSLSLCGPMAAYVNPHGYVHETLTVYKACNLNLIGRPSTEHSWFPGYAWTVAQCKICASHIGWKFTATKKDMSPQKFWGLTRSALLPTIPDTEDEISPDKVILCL
structure (smiles),measurement,setting,value
"CC(C)(C)c1ccc2c(c1)C(=O)N(C1CCC(=O)NC1=O)C2=O (centres unmarked) [A63, 5-(tert-butyl)-2-(2,6-dioxopiperidin-3-yl)isoindoline-1,3-dione]",percent degradation of ZF-GFP reporter at up to 10 µM,"18 h, 10 μM, Jurkat, flow cytometry concentration curve, read-out: degradation of the top mutant ZF-GFP (AEVK)",~100%
same,selectivity compared to the WT ZF (AEVK),"from pDC50 values, 12 concentrations 5 nM-10 μM",around 30 ×
